Assay results taken from patent publication US11999739B2, “Antimicrobials methods of making and using the same” (BIOVERSYS AG, priority 2016, dated 2024).
Values after ≈ are worked out from the molar mass of the structure shown. Read-outs that look alike come from different tables or passages of the source.

Tests used:
Type in all cases: cell-based
[1] = tested on: Enterobacteriaceae; assay: CLSI broth microdilution MIC, multiresistant Enterobacteriaceae panel
Description: (§1) Four compounds, including Compound Nos. 120 and 162 of the present application (RX-04B and RX-04C, respectively) were tested against (i) multiresistant Enterobacteriaceae and Acinetobacter with carbapenemases; (ii) Enterobacteriaceae with MCR-1; and (iii) P. aeruginosa with altered efflux (see Tables 4 and 5). In this case, MCR-1 is relevant because its activity reduces the negative charge of lipopolysaccharides, potentially affecting binding of poly-basic molecules such as the compounds tested herein, as well as polymyxins.
(§2) MICs of the four tested compounds and comparators (amikacin, cefepime, colistin, meropenem and tigecyline) were determined by CLSI broth microdilution using pre-prepared plates (Trek Diagnostic Systems) (CLSI Approved Standard M7-A10). Carbapenemase and mcr-1 genes were detected by PCR or sequencing. Efflux levels in P. aeruginosa isolates were inferred by interpretive reading of antibiogram data.

[2] = tested on: CPE; assay: CLSI broth microdilution MIC, carbapenemase-producing Enterobacteriaceae (CPE); conditions: 35/36 (97%) of CPE, FIG. 2
Description: as §1, §2

[3] = tested on: MCR-1 isolates; assay: CLSI broth microdilution MIC, Enterobacteriaceae with MCR-1; conditions: all MCR-1 isolates (n=14), FIG. 3
Description: as §1, §2

[4] = tested on: E. coli DH10B; assay: CLSI broth microdilution MIC, E. coli DH10B recipient; conditions: Escherichia coli, read-out: MIC
Description: as §2

[5] = tested on: E. coli DH10B mcr-1 transformant; assay: CLSI broth microdilution MIC, E. coli DH10B mcr-1 transformant; conditions: Escherichia coli
Description: as §2

[6] = tested on: A. baumannii; assay: CLSI broth microdilution MIC, A. baumannii
Description: as §1, §2

[7] = tested on: P. aeruginosa; assay: CLSI broth microdilution MIC, P. aeruginosa with altered efflux
Description: as §1, §2

C[C@H](N)CCCc1cc(OC(F)(F)F)c(F)c(-c2cc3cn(-c4ccc([C@@H]5CCC[C@@H](CCNC(=N)N)N5)cc4)c(=O)nc3[nH]2)c1 [RX-04A]
MIC ([1]; 67/68 (>98%) MICs): 0.25 to 2 µg/mL (≈ 0.389 to 3.11 µM) | MIC, peak of unimodal distribution ([1]; 68 Enterobacteriaceae, FIG. 1): 1 µg/mL | MIC ([1]; MICs mostly (summary)): 1 to 2 µg/mL (≈ 1.56 to 3.11 µM) | MIC relative to the MIC for E. coli ATCC 25922 [2]: ≤ 4 fold | MIC relative to the MIC for E. coli ATCC 25922 [3]: ≤ 2 fold | MIC [4]: 0.25 µg/mL (≈ 0.389 µM) | MIC [5]: 0.25 µg/mL (≈ 0.389 µM) | MIC ([6]; Acinetobacter baumannii, 7/10 values, read-out: MIC): 1 to 2 µg/mL (≈ 1.56 to 3.11 µM) | MIC ([6]; MICs mostly (summary)): 1 to 2 µg/mL | MIC ([7]; MICs mostly (summary)): 1 to 4 µg/mL | MIC change in isolates with elevated efflux ([7]; P. aeruginosa isolates with elevated efflux): not raised | MIC ([7]; Pseudomonas aeruginosa, 19/20 (95%) isolates, read-out: MIC): 1 to 4 µg/mL (≈ 1.56 to 6.22 µM)
